# From patent US7232559B1, “Diagnostic agents for pancreatic exocrine function” (Tokyo Gas Company Limited, priority 1999, dated 2007)
# “And” between values parts separate entries of the source, which are not always exact repeats. Equal entries are not always repeated. Primed or numbered codes have the meaning given here. 13C‑Gly = glycine labeled with carbon-13 (13C); Bz′ = not defined here
# Tests used:
# Wistar male rat pancreas = experiment: Model of chronic pancreatitis by oleic acid injection into the pancreatic duct: enzyme contents; assay type: in vivo
# Procedure: A model of chronic pancreatitis in rats were prepared by injecting oleic acid into the pancreatic duct (Mundlos et al., Pancreas 1:29 (1986)). After overnight fast, a Wistar male rat of 5 weeks old was anesthetized by intraperitoneal administration of Nembutal (50 mg/kg). The abdominal wall was shaved and the rat was fixed supinely on an operating table. An Isodine solution was applied to sterilize, and a 3 to 4 cm midline incision was made on the abdomen. The duodenum and the pancreas were drawn out and a 25 G needle was pierced through the duodenal wall. A polyethylene cannula (PE-10) was inserted through the pierced hole into the duodenum and further inserted into the common bile duct by about 5 mm from the papilla. The inserted cannula was fixed by a microclip. Further, the biliary duct was closed by a microclip in order to prevent oleic acid from flowing into the liver. Oleic acid (50 μl) was injected at a rate of 20 μl/min by a microsyringe pump. After the injection was completed, the rat was allowed to stand for 2 minutes so that the oleic acid was distributed throughout the pancreas. The microclips and cannula were removed and the duodenum was returned. The endothelium was sutured with silk thread (Nescosuture silk suture thread 3-0, Nihon Shoji KK) and the outer skin was sutured with a skin stapler (Appose ULC, No. 8034-12, 5.7×3.8 mm). As a control, only laparotomy was carried out. These rats subjected to the operation were kept under free intake of standard food and water at 23° C., relative humidity of 55% until use. After injecting oleic acid into the pancreatic duct and being kept for 3 weeks, these rats (oleic acid-injected rats) were subjected to measurement of amylase in the blood, and to quantitative determination of chymotrypsinogen and amylase contents in the pancreas (FIG. 1). An extraction buffer (20 mM HEPPS+Na, pH 8.0, 100 mM KCl, 0.5% (w/v) Triton X-100) was added to the removed pancreas to the total volume of 10 ml. The material was subjected to ultrasonic disruption (Bionic 7250, Seiko, Sonics & Materials) and centrifuged at 10,000×g for 20 minutes to yield a pancreatic extract as a supernatant. […] After the reaction, 10 μl of 100% (W/V) TCA solution was added and centrifuged at 15,000×g for 5 minutes and the PABA in the supernatant was quantitatively determined using a PABA measuring kit (Eisai). The amylase activity in the pancreatic extract was measured using Fuji Dri-Chem. Both units of activity (U) show μ mole release/min.
# [1] = test system: chronic pancreatitis rats and control (normal) rats; experiment: ^13C-breath test (Δ^13C in exhaled CO2 after oral administration); assay type: in vivo, rat; details: for Δ^13C (‰) value at 30 minutes after the administration (group mean): 30 mg/kg oral; for Δ^13C (‰) (mean) value at 15 minutes after the administration: 420 mg/kg oral
# Procedure: A model of chronic pancreatitis in rats were prepared by injecting oleic acid into the pancreatic duct (Mundlos et al., Pancreas 1:29 (1986)). After overnight fast, a Wistar male rat of 5 weeks old was anesthetized by intraperitoneal administration of Nembutal (50 mg/kg). The abdominal wall was shaved and the rat was fixed supinely on an operating table. An Isodine solution was applied to sterilize, and a 3 to 4 cm midline incision was made on the abdomen. The duodenum and the pancreas were drawn out and a 25 G needle was pierced through the duodenal wall. A polyethylene cannula (PE-10) was inserted through the pierced hole into the duodenum and further inserted into the common bile duct by about 5 mm from the papilla. The inserted cannula was fixed by a microclip. Further, the biliary duct was closed by a microclip in order to prevent oleic acid from flowing into the liver. Oleic acid (50 μl) was injected at a rate of 20 μl/min by a microsyringe pump. After the injection was completed, the rat was allowed to stand for 2 minutes so that the oleic acid was distributed throughout the pancreas. The microclips and cannula were removed and the duodenum was returned. The endothelium was sutured with silk thread (Nescosuture silk suture thread 3-0, Nihon Shoji KK) and the outer skin was sutured with a skin stapler (Appose ULC, No. 8034-12, 5.7×3.8 mm). As a control, only laparotomy was carried out. These rats subjected to the operation were kept under free intake of standard food and water at 23° C., relative humidity of 55% until use.
# The rat of 9 weeks old was fixed without anesthesia in a rat holder for a microwave irradiation apparatus. The breath was collected at a rate of about 100 to 300 ml/min using a stroke pump (Variable Stroke Pump VS-500, Shibata Kagaku Kogyo) and introduced directly to a flow cell of a ^13CO2 analyzer EX-130S (Nihon Bunko). A Perma Pure drier (MD-050-12P, Perma Pure INC.) was set between the rat holder and stroke pump to remove out water vapor in the breath. […]
# Output data from the ^13CO2 analyzer were AD converted and put into a personal computer (Apple Power Macintosh 8500). Using a data processing soft ware Lab VIEW (National Instruments), 10 data points at every 100 msec were integrated and averaged in an interval of 5 seconds and converted to ^13C atom %, Δ^13C (‰), and CO2 concentration (%) In this manner, the ^13C breath test was continuously carried out. […] CO2 concentration in the collected breath was held at 3±0.5%.
# Δ^13C (‰) was calculated from the ^13C concentration in the exhaled CO2 at each time point (^13C tmin) and the ^13C concentration in standard CO2 (^13C std) according to the following equation: Δ^13C (‰)=[(^13C tmin−^13C 0min)/^13C std]×1000
# [2] = molecular target: T1, chymotrypsin (from bovine pancreas) (Bos taurus, UniProt P00766); experiment: Degradation by chymotrypsin (leucine released, ninhydrin reaction); assay type: biochemical
# T1 construct: purchased Worthington Biochemical Corporation #1432, Lot 37A906; host or cells: bovine pancreas (natural source)
# Procedure: Bz-DL-Phe-(^13C-Leu) was reacted with chymotrypsin and the degradation product, leucine, generated upon action of chymotrypsin was quantitatively determined by ninhydrin reaction. The reaction was carried out in 20 mM HEPPS-Na (pH 8.0), 23 mM Bz-DL-Phe-(^13C-Leu), 0.16 mg/ml chymotrypsin (from bovine pancreas, Worthington Biochemical Corporation, #1432, Lot 37A906) at 37° C. for 15 minutes. After reaction, 50 μl of citrate buffer (citric acid monohydrate), 20 μl of ninhydrin solution (50 mg/ml solution in methyl cellosolve) and 100 μl of KCN solution (0.01 M aqueous KCN solution diluted 50 times with methyl cellosolve) were added to 100 μl of the reaction mixture and heated at 100° C. for 15 minutes. After cooling the ninhydrin reaction mixture to room temperature, 150 μl of 60% (V/V) ethanol was added to 100 μl of the ninhydrin reaction mixture and stirred followed by determination of an absorbance at a wave length of 570 nm. An experiment wherein all the reactions that were carried out without adding Bz-DL-Phe-(^13C-Leu) was taken as a “blank,” and leucine was used as a standard.
# [3] = oleic acid-injected rats (n=17), 50 μl into pancreatic duct, 3 weeks after
# [4] = chronic pancreatitis rats #1-#4, 250 mg/kg oral
# [5] = chronic pancreatitis rats (n=4), 250 mg/kg oral
# [6] = normal rats #1-#4, 250 mg/kg oral
# [7] = normal rats (n=4), 250 mg/kg oral
compound,measurement,setting,value
CCCCCCCC/C=C\CCCCCCCC(=O)O [oleic acid],rats evaluated to have pancreatitis (chymotrypsinogen content below mean−2SD of control),Wistar male rat pancreas; 12 rats among 17 oleic acid-injected rats,70%
same,blood amylase concentration,"Wistar male rat pancreas; oleic acid-injected rats (n=17), 3 weeks after",2137 U
same,amylase content in the pancreas,Wistar male rat pancreas; [3],789 U
same,chymotrypsinogen content in the pancreas,Wistar male rat pancreas; [3],8.1 U
Arg-(^13C-Leu),"Δ^13C (‰) at 30 min, individual rat","[1]; chronic pancreatitis rats #1-#4, 30 mg/kg oral",3.74 ‰ and 6.97 ‰ and 4.87 ‰ and 1.92 ‰
same,Δ^13C (‰) value at 30 minutes after the administration (group mean),[1]; chronic pancreatitis rats (n=4),4.37±1.83 ‰
same,"Δ^13C (‰) at 30 min, individual rat","[1]; normal rats #1-#4, 30 mg/kg oral",13.74 ‰ and 15.37 ‰ and 10.08 ‰ and 10.30 ‰
same,Δ^13C (‰) value at 30 minutes after the administration (group mean),[1]; normal rats (n=4),12.37±2.26 ‰
Bz-Ala-Ala-Ala-Ala-(^13C-Gly)-Phe-Leu ({Bz′}-AAAA-{13C‑Gly-Phe-Leu}),"Δ^13C (‰) at 15 min, individual rat","[1]; chronic pancreatitis rats #1-#2, 420 mg/kg oral",−1.90 ‰ and 3.12 ‰
same,Δ^13C (‰) (mean) value at 15 minutes after the administration,[1]; chronic pancreatitis rats (n=2),0.61 ‰
same,"Δ^13C (‰) at 15 min, individual rat","[1]; normal rats #1-#2, 420 mg/kg oral",23.47 ‰ and 43.16 ‰
same,Δ^13C (‰) (mean) value at 15 minutes after the administration,[1]; normal rats (n=2),33.32 ‰
Bz-Arg-(^13C-Leu).HCl,"Δ^13C (‰) at 20 min, individual rat","[1]; chronic pancreatitis rats #1-#3, 100 mg/kg oral",3.69 ‰ and 11.25 ‰ and −5.79 ‰
same,Δ^13C (‰) value at 20 minutes after the administration (group mean),"[1]; chronic pancreatitis rats (n=3), 100 mg/kg oral",3.05±6.97 ‰
same,"Δ^13C (‰) at 20 min, individual rat","[1]; normal rats #1-#3, 100 mg/kg oral",79.91 ‰ and 51.94 ‰ and 74.46 ‰
same,Δ^13C (‰) value at 20 minutes after the administration (group mean),"[1]; normal rats (n=3), 100 mg/kg oral",68.77±12.01 ‰
Bz-DL-Phe-(^13C-Leu),rate of degradation,"[2]; 23 mM substrate, 0.16 mg/ml chymotrypsin, 20 mM HEPPS-Na pH 8.0, 37° C., 15 minutes",1.72 nmole/mg chymotrypsin/min
same,substrate for chymotrypsin,"[2]; same reaction, leucine produced",could be a substrate for chymotrypsin
same,time course of Δ^13C (‰),"[1]; 7 cases of the chronic pancreatitis rats (n=8), 250 mg/kg oral",the degree of increase was small and continued to slowly increase for 30 minutes
Bz-L-Phe-(^13C-Leu),"Δ^13C (‰) at 10 min, individual rat",[1]; [4],1.61 ‰ and 3.28 ‰ and 17.21 ‰ and 5.77 ‰
same,Δ^13C (‰) value at 10 minutes after the administration (group mean),[1]; [5],6.97±6.09 ‰
same,"Δ^13C (‰) at 10 min, individual rat",[1]; [6],60.25 ‰ and 165.37 ‰ and 203.16 ‰ and 31.29 ‰
same,Δ^13C (‰) value at 10 minutes after the administration (group mean),[1]; [7],115.02±71.26 ‰
Bz-Tyr-(^13C-Leu),"Δ^13C (‰) at 20 min, individual rat",[1]; [4],8.76 ‰ and 3.58 ‰ and 2.44 ‰ and −0.15 ‰
same,Δ^13C (‰) value at 20 minutes after the administration (group mean),[1]; [5],3.66±3.24 ‰
same,"Δ^13C (‰) at 20 min, individual rat",[1]; [6],65.76 ‰ and 21.02 ‰ and 80.02 ‰ and 111.32 ‰
same,Δ^13C (‰) value at 20 minutes after the administration (group mean),[1]; [7],69.53±32.50 ‰
